According to PMC3651692 (Bioorganic & medicinal chemistry letters, 2013):

The compounds below were run against μ-opioid receptor (MOR) (Homo sapiens, UniProt P35372).
Type: binding

Chain of μ-opioid receptor (MOR) (P35372 whole entry, species assumed): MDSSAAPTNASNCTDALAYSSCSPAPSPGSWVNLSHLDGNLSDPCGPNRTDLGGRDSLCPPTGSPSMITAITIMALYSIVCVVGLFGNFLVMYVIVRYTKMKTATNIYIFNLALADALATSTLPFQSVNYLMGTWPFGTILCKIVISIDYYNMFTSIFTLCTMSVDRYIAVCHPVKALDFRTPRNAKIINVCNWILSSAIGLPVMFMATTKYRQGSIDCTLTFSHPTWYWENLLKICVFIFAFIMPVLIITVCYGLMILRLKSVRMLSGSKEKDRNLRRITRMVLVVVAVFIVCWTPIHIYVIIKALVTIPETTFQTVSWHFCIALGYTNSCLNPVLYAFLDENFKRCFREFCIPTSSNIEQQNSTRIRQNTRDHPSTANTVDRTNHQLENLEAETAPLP

| SMILES | Affinities Ki± SD MOR |
| --- | --- |
| COC(=O)[C@@H]1C[C@H](OC(=O)/C=C\C(=O)O)C(=O)[C@H]2[C@@]1(C)CC[C@H]1C(=O)O[C@H](c3ccoc3)C[C@]21C [Compound 13] | no affinity |

The compounds below were run against δ-opioid receptor (DOR) (Homo sapiens, UniProt P41143).
Type: binding

Chain of δ-opioid receptor (DOR) (P41143 whole entry): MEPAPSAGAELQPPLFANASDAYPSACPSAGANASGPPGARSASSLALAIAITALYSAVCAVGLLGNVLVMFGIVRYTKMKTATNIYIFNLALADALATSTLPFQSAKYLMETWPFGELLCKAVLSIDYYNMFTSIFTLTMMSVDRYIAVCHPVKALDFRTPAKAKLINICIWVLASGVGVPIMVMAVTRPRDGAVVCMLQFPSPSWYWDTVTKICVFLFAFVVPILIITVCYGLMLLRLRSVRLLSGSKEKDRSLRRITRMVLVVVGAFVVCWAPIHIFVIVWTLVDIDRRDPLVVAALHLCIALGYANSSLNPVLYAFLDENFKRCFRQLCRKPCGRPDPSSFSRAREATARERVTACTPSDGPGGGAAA

| SMILES | Affinities Ki± SD DOR |
| --- | --- |
| COC(=O)[C@@H]1C[C@H](OC(=O)/C=C\C(=O)O)C(=O)[C@H]2[C@@]1(C)CC[C@H]1C(=O)O[C@H](c3ccoc3)C[C@]21C [Compound 13] | no affinity |

These compounds were tested against κ-opioid receptor (KOR) (Homo sapiens, UniProt P41145).
Type: binding

Chain of κ-opioid receptor (KOR) (P41145 whole entry): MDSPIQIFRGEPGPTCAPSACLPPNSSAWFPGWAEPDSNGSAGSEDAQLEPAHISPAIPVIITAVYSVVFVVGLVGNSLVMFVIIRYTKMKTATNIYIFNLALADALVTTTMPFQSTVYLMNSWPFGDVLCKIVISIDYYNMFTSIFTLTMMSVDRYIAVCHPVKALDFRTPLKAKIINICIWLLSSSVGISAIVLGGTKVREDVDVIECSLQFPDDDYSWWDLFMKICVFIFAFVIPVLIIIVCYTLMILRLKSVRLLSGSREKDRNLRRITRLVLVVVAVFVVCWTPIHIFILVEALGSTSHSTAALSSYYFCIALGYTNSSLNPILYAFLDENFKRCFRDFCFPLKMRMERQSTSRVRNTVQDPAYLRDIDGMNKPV

| SMILES | Selectivity MOR/KOR | Fold reduction of KOR affinity compared to 1 [fold] | Selectivity DOR/KOR | Affinities Ki± SD KOR |
| --- | --- | --- | --- | --- |
| COC(=O)CC(=O)O[C@H]1C[C@@H](C(=O)OC)[C@]2(C)CC[C@H]3C(=O)O[C@H](c4ccoc4)C[C@]3(C)[C@H]2C1=O [Compound 4] | >5000 | – | – | – |
| CCOC(=O)CC(=O)O[C@H]1C[C@@H](C(=O)OC)[C@]2(C)CC[C@H]3C(=O)O[C@H](c4ccoc4)C[C@]3(C)[C@H]2C1=O [Compound 5] | >476 | 3 | >476 | – |
| COC(=O)[C@@H]1C[C@H](OC(=O)CC(=O)OC(C)(C)C)C(=O)[C@H]2[C@@]1(C)CC[C@H]1C(=O)O[C@H](c3ccoc3)C[C@]21C [Compound 6] | >67 | 24 | >67 | – |
| COC(=O)CCC(=O)O[C@H]1C[C@@H](C(=O)OC)[C@]2(C)CC[C@H]3C(=O)O[C@H](c4ccoc4)C[C@]3(C)[C@H]2C1=O [Compound 7] | >277 | 6 | >277 | – |
| CCOC(=O)CCC(=O)O[C@H]1C[C@@H](C(=O)OC)[C@]2(C)CC[C@H]3C(=O)O[C@H](c4ccoc4)C[C@]3(C)[C@H]2C1=O [Compound 8] | >23 | 70 | >23 | – |
| COC(=O)CCCC(=O)O[C@H]1C[C@@H](C(=O)OC)[C@]2(C)CC[C@H]3C(=O)O[C@H](c4ccoc4)C[C@]3(C)[C@H]2C1=O [Compound 9] | – | 49 | >33 | – |
| COC(=O)CCCCC(=O)O[C@H]1C[C@@H](C(=O)OC)[C@]2(C)CC[C@H]3C(=O)O[C@H](c4ccoc4)C[C@]3(C)[C@H]2C1=O [Compound 10] | >17 | – | >17 | – |
| COC(=O)[C@@H]1C[C@H](OC(=O)CCCC(=O)O)C(=O)[C@H]2[C@@]1(C)CC[C@H]1C(=O)O[C@H](c3ccoc3)C[C@]21C [Compound 12] | – | – | >38 | – |
| COC(=O)[C@@H]1C[C@H](OC(=O)/C=C\C(=O)O)C(=O)[C@H]2[C@@]1(C)CC[C@H]1C(=O)O[C@H](c3ccoc3)C[C@]21C [Compound 13] | – | – | – | no affinity |
| COC(=O)/C=C/C(=O)O[C@H]1C[C@@H](C(=O)OC)[C@]2(C)CC[C@H]3C(=O)O[C@H](c4ccoc4)C[C@]3(C)[C@H]2C1=O [Compound 14] | – | 6 | >256 | – |
| CCOC(=O)/C=C/C(=O)O[C@H]1C[C@@H](C(=O)OC)[C@]2(C)CC[C@H]3C(=O)O[C@H](c4ccoc4)C[C@]3(C)[C@H]2C1=O [Compound 15] | – | – | >23 | – |
| COC(=O)[C@@H]1C[C@H](OC(=O)c2ccccc2C(=O)O)C(=O)[C@H]2[C@@]1(C)CC[C@H]1C(=O)O[C@H](c3ccoc3)C[C@]21C [Compound 16] | >4 | – | >4 | – |
